Results published in US20260000632A1, “STRUCTURALLY MODIFIED FATTY ACIDS FOR IMPROVING GLYCEMIC CONTROL AND TREATING INFLAMMATORY BOWEL DISEASE” (Northsea Therapeutics B.V., priority 2018, published 2026).
Like-named read-outs stand apart in the source and are kept apart here.

Key:
active GLP-1 = assay: Active GLP-1 during oral glucose tolerance test (OGTT) and at 24 h in lean male SPD rats; format: in vivo, rat
Method: (§1) To establish the acute effects of oral administration of Compound A and Compound B upon active GLP-1 and insulin concentrations, lean (about 300 g) male Sprague-Dawley (SPD) rats were divided into groups (n=6-8) and fed 74 and 84 mg/kg body weight of Compound A or Compound B respectively, either with or without concurrent administration of a dipeptidyl peptidase 4 (DPP-4) inhibitor 60 minutes prior to an oral glucose tolerance test (OGTT) as outlined below. Parallel groups receiving either corn oil alone (corn oil+vehicle, n=10) or corn oil and a DPP-4 inhibitor (“DPP-4 i”) (corn oil+ (DPP-4 i), n=10) were included as controls. The DPP-4 inhibitor was linagliptin.
(§2) A second oral dose of 74 and 84 mg/kg bodyweight of Compound A or Compound B respectively was administered at 240 minutes and ad lib feeding was initiated. A second dose of DPP-4 inhibitor was administered at 480 mins prior to lights out. Blood samples were collected at 24 h for measurement of active GLP-1 and insulin. All values are mean, figures depict mean values (SEM).

plasma insulin = assay: Plasma insulin at 24 h in lean male SPD rats; format: in vivo, rat; details: Compound A 74 mg/kg or Compound B 84 mg/kg oral, non-significant
Method: as §1, §2

ob/ob mice [1] = assay: Glucose tolerance after 21-day treatment in high-fat diet fed ob/ob mice; format: in vivo, mouse; details: 112 mg/kg once-daily via diet, 21 days
Method: This study was carried out to assess the effects of chronic treatment with Compound B or Compound A on glucose tolerance in a T2DM rodent model.
For assessing the effects of Compound A, ob/ob mice were fed a high-fat diet (comprising 2% cholesterol, 40% fat (containing 18% trans-fatty acids), 20% fructose) for 15 weeks starting at age 5 weeks. […] After 21 days the mice received a 2 g/kg oral glucose load. After the oral glucose load, plasma glucose was measured at multiple time points from 0-240 minutes.

ob/ob mice [2] = assay: Chronic treatment in ob/ob mice: basal parameters after 4 weeks; format: in vivo, mouse; details: 4 weeks diet admix, 4 h fast, Compound A 135, fenofibrate 100, pioglitazone 30 mg/kg bw/d, mean ± SEM; for Plasma adiponectin: control 4.3 ± 0.4; for Blood HbA1c: control 8.4 ± 0.4; for HOMA-IR: control 65.7 ± 9.8; for Plasma insulin: control 73.2 ± 13.6; for Plasma ALT: control 271.4 ± 18.8; for Blood glucose: control 380.8 ± 26.3
Method: (§3) Mice were fed a standard low-fat (7% w/w fat) diet. After 4-weeks, the mice were fasted for 4 hours and the effects of Compound A were assessed. Assessment of the effects of Compound A included basal levels of blood glucose, plasma insulin, HbA1c levels, and homeostatic model assessment of insulin resistance (HOMA-IR). HOMA-IR is an assessment of insulin resistance and is calculated by the following formula: fasting insulin (micro U/L)×fasting glucose […]/22.5.

ob/ob mice [3] = assay: Oral glucose (2 g/kg) tolerance test after 5 weeks treatment in ob/ob mice; format: in vivo, mouse; details: for Plasma glucose AUC (0-120 min) / Plasma glucose, 0 min / Plasma glucose, 15 min / Plasma glucose, 30 min / Plasma glucose, 45 min / Plasma glucose, 60 min / Plasma glucose, 120 min: OGTT 2 g/kg, mean
Method: as §3
After 5 weeks, an oral glucose (2 g/kg) tolerance test was performed after a 4 hour fast.

atherogenic lipids [4] = details: humans; cited from earlier work
atherogenic lipids [5] = details: APOE*3.CETP mice; cited from earlier work
GLP-1 = details: direct colonic delivery, rodents; cited from earlier work
[6] = 15 mg/kg bw/d diet admix 5 weeks
[7] = 45 mg/kg bw/d diet admix 5 weeks
[8] = 135 mg/kg bw/d diet admix 5 weeks
[9] = reference drugs: fenofibrate 100, pioglitazone 30 mg/kg bw/d diet admix 5 weeks

In the case of CC/C=C\C/C=C\C/C=C\C/C=C\C/C=C\CCCCOC(CC)C(=O)O (centres unmarked) [Compound A, 2-(((5Z,8Z,11Z,14Z,17Z)-icosa-5,8,11,14,17-pentaen-1-yl)oxy)butanoic acid], the “Effect on active GLP-1 concentration at 24 h versus corn oil+vehicle” value (active GLP-1; in combination with DPP4 inhibitor, Compound A 74 mg/kg or Compound B 84 mg/kg oral, two doses) is reported as “significantly (p<0.05) increased”, the “Increase in plasma insulin concentration at 24 h versus corn oil+vehicle and corn oil+DPP4 inhibitor” value (plasma insulin; compound alone) is reported as 25% and the “Increase in plasma insulin concentration at 24 h versus corn oil+vehicle and corn oil+DPP4 inhibitor” value (plasma insulin; in combination with DPP4 inhibitor) is reported as 25%. For the same compound, the “Glucose tolerance from 15 minutes through 90 minutes post-glucose load compared to vehicle” value (ob/ob mice [1]) was “significantly improved glucose tolerance”, the AUC glucose (ob/ob mice [1]; p<0.01) was “significantly reduced AUC glucose” and the Plasma adiponectin (ob/ob mice [2]) was 3.8 ± 0.4 µg/mL. For the same compound, the “Blood HbA1c” value (ob/ob mice [2]) was 4.5 ± 0.1 %, the HOMA-IR (ob/ob mice [2]) was 8.6 ± 3.6 and the Plasma insulin (ob/ob mice [2]) was 17.6 ± 6.8 ng/mL. The “Plasma ALT” value (ob/ob mice [2]) was 180.6 ± 14.6 U/L, the Blood glucose (ob/ob mice [2]) was 191.5 ± 6.1 mg/dL and the Plasma glucose AUC (0-120 min) (ob/ob mice [3]; [6]) was 1760 mM·min. The “Plasma glucose, 0 min” value (ob/ob mice [3]; [6]) was 11.4 mM, the “Plasma glucose, 15 min” value (ob/ob mice [3]; [6]) was 37.5 mM and the “Plasma glucose, 30 min” value (ob/ob mice [3]; [6]) was 34.4 mM. For the same compound, the “Plasma glucose, 45 min” value (ob/ob mice [3]; [6]) was 28.0 mM, the “Plasma glucose, 60 min” value (ob/ob mice [3]; [6]) was 25.5 mM and the “Plasma glucose, 120 min” value (ob/ob mice [3]; [6]) was 19.6 mM. For the same compound, the Plasma glucose AUC (0-120 min) (ob/ob mice [3]; [7]) was 1110 mM·min, the “Plasma glucose, 0 min” value (ob/ob mice [3]; [7]) was 13.3 mM and the “Plasma glucose, 15 min” value (ob/ob mice [3]; [7]) was 36.5 mM. The “Plasma glucose, 30 min” value (ob/ob mice [3]; [7]) was 30.1 mM, the “Plasma glucose, 45 min” value (ob/ob mice [3]; [7]) was 24.5 mM and the “Plasma glucose, 60 min” value (ob/ob mice [3]; [7]) was 21.0 mM. For the same compound, the “Plasma glucose, 120 min” value (ob/ob mice [3]; [7]) was 15.3 mM, the Plasma glucose AUC (0-120 min) (ob/ob mice [3]; [8]) was 816 mM·min and the “Plasma glucose, 0 min” value (ob/ob mice [3]; [8]) was 9.2 mM. The “Plasma glucose, 15 min” value (ob/ob mice [3]; [8]) was 27.7 mM, the “Plasma glucose, 30 min” value (ob/ob mice [3]; [8]) was 22.1 mM and the “Plasma glucose, 45 min” value (ob/ob mice [3]; [8]) was 14.6 mM. For the same compound, the “Plasma glucose, 60 min” value (ob/ob mice [3]; [8]) was 13.4 mM, the “Plasma glucose, 120 min” value (ob/ob mice [3]; [8]) was 12.8 mM and the “Lowering of glucose levels in oral glucose tolerance test” value (ob/ob mice [3]; 15, 45, 135 mg/kg bw/d diet admix 5 weeks) was “dose-dependent response in lowering glucose levels”. The “Effect on atherogenic lipids” value (atherogenic lipids [4]) was “significantly reduce atherogenic lipids” and the “Effect on atherogenic lipids” value (atherogenic lipids [5]) was “significantly reduce atherogenic lipids”.
In the case of CC/C=C\C/C=C\C/C=C\C/C=C\C/C=C\C/C=C\CCC(=O)O [DHA], the GLP-1 secretion (GLP-1) is given as “able to induce GLP-1 secretion”.
For CC#CCn1c(N2CCC[C@@H](N)C2)nc2c1c(=O)n(Cc1nc(C)c3ccccc3n1)c(=O)n2C [DPP4 inhibitor, linagliptin, reference compound], the “Effect on active GLP-1 concentration at 24 h” value (active GLP-1; corn oil+DPP4 inhibitor alone) was “no significant effect” and the “Effect on active GLP-1 (AUC 0-60 mins) versus corn oil alone” value (active GLP-1; corn oil+DPP4 inhibitor alone, OGTT) was “no significant effect”.
For CC(C)OC(=O)C(C)(C)Oc1ccc(C(=O)c2ccc(Cl)cc2)cc1 [Fenofibrate, fenofibrate, reference compound], the Plasma adiponectin (ob/ob mice [2]) was 5.0 ± 0.4 µg/mL, the “Blood HbA1c” value (ob/ob mice [2]) was 4.8 ± 0.2 % and the HOMA-IR (ob/ob mice [2]) was 20.3 ± 5.9. For the same compound, the Plasma insulin (ob/ob mice [2]) was 35.5 ± 9.0 ng/mL, the “Plasma ALT” value (ob/ob mice [2]) was 224.0 ± 27.4 U/L and the Blood glucose (ob/ob mice [2]) was 220.3 ± 8.1 mg/dL. For the same compound, the Plasma glucose AUC (0-120 min) (ob/ob mice [3]; [9]) was 1420 mM·min, the “Plasma glucose, 0 min” value (ob/ob mice [3]; [9]) was 15.4 mM and the “Plasma glucose, 15 min” value (ob/ob mice [3]; [9]) was 35.9 mM. For the same compound, the “Plasma glucose, 30 min” value (ob/ob mice [3]; [9]) was 35.9 mM, the “Plasma glucose, 45 min” value (ob/ob mice [3]; [9]) was 30.6 mM and the “Plasma glucose, 60 min” value (ob/ob mice [3]; [9]) was 28.2 mM.
In the case of CCc1ccc(CCOc2ccc(CC3SC(=O)NC3=O)cc2)nc1 (centres unmarked) [Pioglitazone, pioglitazone, reference compound], the “Blood HbA1c” value (ob/ob mice [2]) is reported as 3.8 ± 0.1 %, the HOMA-IR (ob/ob mice [2]) is reported as 2.1 ± 0.3 and the Plasma insulin (ob/ob mice [2]) is reported as 5.7 ± 0.8 ng/mL. The “Plasma ALT” value (ob/ob mice [2]) was 257.3 ± 15.5 U/L, the Blood glucose (ob/ob mice [2]) was 147.5 ± 3.1 mg/dL and the Plasma glucose AUC (0-120 min) (ob/ob mice [3]; [9]) was 879 mM·min. The “Plasma glucose, 0 min” value (ob/ob mice [3]; [9]) was 7.8 mM, the “Plasma glucose, 15 min” value (ob/ob mice [3]; [9]) was 24.2 mM and the “Plasma glucose, 30 min” value (ob/ob mice [3]; [9]) was 18.5 mM. For the same compound, the “Plasma glucose, 45 min” value (ob/ob mice [3]; [9]) was 17.3 mM, the “Plasma glucose, 60 min” value (ob/ob mice [3]; [9]) was 15.2 mM and the “Plasma glucose, 120 min” value (ob/ob mice [3]; [9]) was 10.9 mM.
